Where only a bound is given, the exact number is not on record here.

Usually melting point stands for the temperature, or range, at which the solid turns liquid. Consider `Cc1c(N2C[C@@H](N)C(C)(C)C2)c(F)c(N)c2c(=O)c(C(=O)O)cn(C3CC3)c12`, for which the melting point fell in the range of 192 to 193 °C.

`CC1(C)Oc2ccc(OCc3ccccc3)cc2C2OC21` (centres undefined) showed a melting point of 70 to 72 °C. As to `CC(C)(NC(=O)CCn1cnc(C=O)c1)c1ccc(Cl)cc1`, the melting point was in the range of 151 to 153 °C.

As to `CCCCNC(=O)N(C)c1ncc(-c2ccncc2)cn1`, the melting point lay within 97 to 99 °C. In the case of `CC(=O)Nc1ccc(-c2ccnc3c(C(=O)c4ccccc4)cnn23)cc1` it was 229 to 231 °C; in that of `CCOC(=O)Cn1c(-c2cc(Cl)ccn2)nc2cccnc21`, 99 to 101 °C; in that of `CCOC(=O)c1cc2c3ccccc3[nH]c(=S)n2n1`, 242 to 243 °C.

The molecule `CC(=O)c1cc(CC(=O)O)cc2c1NC(C(F)(F)F)CC2` (centres undefined) displayed a melting point of 173 to 174 °C. The value for `COc1ccc(C(=O)Nc2ccccc2)cc1NCc1ccc(N(C)C)cc1` was 195 to 197 °C. In the case of `O=C1CCC(c2ccccc2)(c2ccccc2)[C@@H]2CN(C(=O)Cc3ccsc3)C[C@H]12` (racemic) it was 224 °C; in that of `CC(=O)C(C)=Cc1sccc1C`, 72 °C; in that of `Cc1nnc(CN2C(=O)c3ccccc3C2=O)n1-c1ccc(Cl)cc1C(=O)c1ccccc1Cl`, 262 to 265 °C. In the case of `CC(C)[C@H](NC(=O)OCc1ccccc1)C(=O)NC(Cc1ccccc1)C(O)C(Cc1ccccc1)NC(=O)OC(C)(C)C` (some centres undefined) it was 187 to 188 °C. Consider `ClC1(Cl)OC(Cl)(Cl)c2ccccc21`, for which the melting point is 85 to 86 °C.

`CCC(=O)Nc1ccc2nc(C(=O)NCc3cccc(OC)c3)[nH]c(=O)c2c1` gave a melting point of 222 to 223 °C. The value for `CC(C)(C)Nc1cc(Cl)nc(N2CCCC2)n1` was 148 to 150 °C; that for `CC(C)(C)OC(=O)N1CCC2(CC1)CC(=O)N(OCCO)C2=O` was 97 to 98 °C; that for `CC(=NNc1ccc(C(F)(F)F)cc1)C(=O)NCc1ccc(Cl)cc1` was 124 to 125 °C. In the case of `CCC(=O)Nc1cc(C2=NCCO2)ccc1OCCCCCc1cc(C)no1` it was 133 to 134 °C; in that of `N#CC(Cl)=C(Cl)S(=O)(=O)c1cc(Cl)ccc1Cl`, 84 °C; in that of `CCOC(=O)/C=C/c1ccc(OCC2CCCO2)cc1Oc1ncc(C(F)(F)F)cc1Cl` (centres undefined), 84 to 86 °C.

In turn, `O=C(Cc1cccc(O)c1)NNC(=O)c1ccc(O)c([N+](=O)[O-])c1` registered a melting point of 190 to 193 °C. In the case of `O=C1c2ccccc2C(=O)N1OS(=O)(=O)c1ccc(Cl)cc1` it was 178 to 180 °C.

Molecule `Cc1ccc(-c2nc(COc3ccc(CCCn4ccnc4)cc3Cl)co2)s1` yielded a melting point of 95 to 96 °C. For the molecule `Cc1ccc(-n2nc(C(N)=O)nc2-c2ccccc2)cc1COCCC(C)C`, the melting point lay within 83 to 85 °C. The value for `CC#Cc1ccc(NC(=O)c2cccnc2NCc2ccc(OC)nc2)cc1C(F)(F)F` was 109 to 111 °C; that for `OC1c2ccccc2COc2ccc(-c3nnn[nH]3)cc21` (centres undefined) was 335 °C; that for `COc1ccccc1N1CCN(CC(O)COc2ccc3cc(C(C)=O)oc3c2)CC1` (centres undefined) was 122 to 125 °C. In the case of `COC(=O)c1ccc(OCCCCCCCc2cc(C)no2)cc1` it was 60 °C; in that of `CCOCC(=O)c1cc(C(C)(C)C)c(O)c(C(C)(C)C)c1`, 73 to 75 °C. For the molecule `CC(C)(C)OC(=O)N1CCC(S(=O)(=O)Cl)CC1`, the melting point was 84.6 to 85.7 °C.

Molecule `COC(=O)c1n[nH]c(=O)c2ccc(Cl)cc12` yielded a melting point of 222 to 223 °C. The value for `CCC(=O)NC(=O)c1cc([N+](=O)[O-])cnc1C` was 171 to 173 °C; that for `COC(=S)OCC(COC(=S)OC)OCn1cnc2c(=O)[nH]c(N)nc21` was 148 to 150 °C.

Molecule `Cc1c(Cl)cccc1N=c1scc(-c2ccc(Cl)c(S(=O)(=O)N(C)C)c2)n1C` came in with a melting point of 144 to 146 °C.

Molecule `COC(=O)C(C)c1ccc(N2Cc3ccccc3C2=O)cc1` (centres undefined) registered a melting point of 128 °C.

In turn, `CCCc1c(C(=O)C(C)C)c2ccc(C(N)=O)cc2n1Cc1ccccc1Br` returned a melting point of 173 to 174 °C.

For the molecule `CN(C)CCCOC(=O)c1cccc2c(-c3ccccc3)c([N+](=O)[O-])oc12`, the melting point was in the range of 65.5 to 67.5 °C.

For `Cc1nc(Nc2ccc(F)cc2)nc(O)c1C`, the melting point was 256 °C. The value for `CC(C)(C)OC(=O)N1CCc2c(n(CCOc3ccccc3)c3c(Cl)cc(Cl)cc23)CC1` was 154 to 155 °C; that for `C(#Cc1cc2ccccc2s1)c1cccs1` was 114 to 116 °C. `C[Si](C)(C)N1CCN(N=Cc2ccccc2)C(=O)C1=O` came in with a melting point of 190 to 191 °C. In the case of `Cc1c(C=O)cccc1C(=O)c1ccc(Cl)cc1` it was 68 °C; in that of `COc1cccc2c1C(=O)c1c(OC)cc(C(=O)N(C)OCc3ccccc3)cc1C2=O`, 170 to 171 °C; in that of `CC1CCc2cc([N+](=O)[O-])cnc2C1` (centres undefined), 55 to 56 °C. The value for `Clc1nccnc1Oc1ccc2c(c1)OCO2` was 87 to 88 °C. Take `O=c1[nH]c2ncc(-c3ccc(-c4nc[nH]n4)cc3)nc2n1CC1CCCCC1`: the melting point was 336 to 338 °C. On to `CC(O)C#CC1(C)C=CN=C(N)N1` (centres undefined), for which the melting point was determined as 155 °C. In the case of `CCOC(=O)C(CC)Oc1ccc(-c2nc(-c3ccc(OC(CC)C(=O)OCC)cc3O)nc(-c3ccc(OC(CC)C(=O)OCC)cc3O)n2)c(O)c1` (centres undefined) it was 101 to 105 °C. `COc1cc2c(cc1OC)OCCC(C(=O)N1CCN(C(=O)c3cc(OC)c(OC)c(OC)c3)CC1)=C2` yielded a melting point of 132 to 134 °C. The value for `Cc1ccc(Cl)c(Nc2ccccc2-c2nnc(N)o2)c1Cl` was 255 to 257 °C; that for `O=Cc1ccc(-c2ccc(C(F)(F)F)cc2)cc1` was 70 °C. In the case of `CN(C)CCCC1(O)c2ccccc2CCc2c(C3(C)OCCO3)cccc21` (centres undefined) it was 122 to 124 °C; in that of `O=S(CCO)CCC(c1cc(F)ccc1F)S(=O)(=O)c1ccc(Cl)cc1` (centres undefined), 124 to 132 °C; in that of `Cc1c(N(C)C)cc(C(=O)CS(C)(=O)=O)cc1N(C)C`, 161 to 163 °C. The value for `C#Cc1cc2c(Nc3ccc(OCc4cccc(F)c4)c(Cl)c3)ncnc2s1` was 197 °C; that for `CCNC(=S)NS(=O)(=O)c1cc2c(cc1OC)OCCC2CNC(=O)N1CC(C)=C(CC)C1=O` (centres undefined) was 147 °C. In turn, `CC1(c2ccccc2)OC(C=Cc2cccnc2)=CC1=O` (centres undefined) gave a melting point of 106 to 108 °C.

Take `CCCc1nc2c(N)nc3cc(Oc4ccccc4C(=O)OC)ccc3c2n1CC(C)C`: the melting point was 167 to 168 °C. The value for `O=C(C=Cc1ccccc1)SC(Cn1ccnc1)c1ccc(Cl)cc1Cl` (centres undefined) was 139 to 141 °C; that for `CS(=O)(=O)c1ccc(-c2cnn(-c3ccc(F)c(F)c3)c(=O)c2CCC=C2CC2)cc1` was 128 to 129 °C; that for `CCOC(=O)C1=C(C)NC(=O)N(C(=O)CC)C1c1cccc([N+](=O)[O-])c1` (centres undefined) was 152 to 154 °C. In the case of `CONC(=O)COc1c(-c2ccccc2)c(=O)[nH]c2cc(Cl)ccc12` it was 205 to 207 °C; in that of `O=c1[nH]c2cc(Cl)cc(Cl)c2c(=O)n1Cc1ccncc1`, 354 to 364 °C. On to `O=[N+]([O-])c1cc(N=Nc2ccc(S(=O)(=O)F)cc2)cc(Cl)c1O`, for which the melting point was in the range of 129 to 133 °C. The value for `CCN(CC)C(=O)Oc1nc(-c2ccc(C)cc2)cc2ccccc12` was 98 °C.

As for `COC(=O)[C@H](Cc1ccccc1)NC(=S)Cc1cc(C)ccc1C`, the melting point is 63.5 to 64 °C. `CC(C)CN1CCCCC1C(=O)Nc1cc(C(F)(F)F)ccc1-c1cc(Oc2cccc3[nH]c(=O)c(N)nc23)ncn1` (centres undefined) yielded a melting point of more than 250 °C. In the case of `O=C1N=CC(OCC2CC2)(C(F)(F)F)c2cc(F)ccc2N1` (centres undefined) it was 198 to 199 °C; in that of `CCCCOP(=O)(OCCCC)C(Sc1cc(F)ccc1O)=P(OCCCC)(OCCCC)OCCCC`, 165 to 166 °C.

In turn, `O=C(C1=C(O)C(=O)N(C2CC2)C1)c1ccc(Cc2ccc(F)cc2)o1` registered a melting point of 158 to 159 °C.

As for `COC(=O)c1cc(N)c(C#N)s1`, the melting point was in the range of 187 to 189 °C. In the case of `CCCC1=C(C#N)C(c2ccccc2Br)c2c[nH]nc2N1` (centres undefined) it was 237 °C; in that of `O=C(O)c1ccc(C(c2ccc(C(=O)O)c(C(=O)O)c2)(C(F)(F)F)C(F)(F)F)cc1C(=O)O`, 231 to 234 °C. In the case of `CC(C)(C)c1cc2c(c(C(C)(C)C)c1)OCC(/C=C/C=C/C=C/C(=O)O)=C2` it was 166 to 168 °C; in that of `CCCN1CCc2[nH]c3ccc4scc(C)c4c3c2C1`, 169 °C; in that of `c1ccc(-c2cn3ccsc3n2)cc1`, 143 to 144 °C. Molecule `Nc1nc[nH]c1-c1n[nH]c(-c2ccc(-c3ccccc3)cc2)n1` gave a melting point of 230 °C. The value for `COc1cc(/C=C/c2ccc(C(C)C)cc2)cc(OC)c1OC` was 74 to 75 °C; that for `O=C(CCCl)NC(=O)Nc1cc(C(F)(F)F)cc(C(F)(F)F)c1` was 175 °C.

`COc1ccc2cc([C@H](C)C(=O)OCCS(=O)CCO)ccc2c1` (some centres undefined) came in with a melting point of 74 to 86 °C.

For the molecule `O=C(Nc1ccc2ccc(Cl)nc2n1)c1cscn1`, the melting point was 325 °C. In the case of `COc1cc2c(cc1Nc1ncc(Cl)c(Nc3ccccc3S(=O)(=O)N(C)C)n1)CCN(C(=O)C(C)(C)N)CC2` it was 93 to 101 °C; in that of `CCOC(=O)c1[nH]c(C)c(C)c1CC`, 95 to 97 °C; in that of `N[C@@H](Cc1cccc(OC(F)(F)C(F)F)c1)[C@H](O)c1ccnc(F)c1` (racemic), 119 to 120 °C. The value for `COc1ccc(-c2csc(Nc3ccc(C(F)(F)F)cn3)n2)cc1OC` was 244 to 247 °C. As for `CCOCc1nc2c(N)nc3cc(-c4ccccc4)ccc3c2n1CC1CCN(C(=O)OC(C)(C)C)CC1`, the melting point lay in the range of 194 to 195 °C. Take `COC(=O)CS(=O)(=O)CCCCN(c1cnc(-c2ccccc2)c(-c2ccccc2)n1)C(C)C`: the melting point lay in the range of 123 to 125 °C. The value for `COc1ccc2c(O)c(C(C)C)cc(Br)c2c1` was 81.5 to 83.5 °C.

The values are drawn from a melting point compilation (Tetko et al.; mined from patent text by program, amines drawn as free bases though some values may be those of a salt).
